Experiment in all cases: Biochemical inhibition assay, fluorogenic substrate FSR-AMC
For test [1], the target named is KLK6 (Homo sapiens, UniProt Q92876).
Procedure: (§1) In a 384 well plate, 5 µL of eleven concentrations of inhibitor in 8% DMSO (serial dilution 2:1) and a blank were incubated with an equal amount of enzyme (KLK6, Thrombin, Trypsin or Factor Xa) diluted in 50 mM Tris pH 7.5, 150 mM NaCl, 1 mM EDTA, 0.05% Tween20 assay buffer for 30 minutes. […] Inhibition of the enzyme as a function of the inhibitor concentration was used to generate dose response curves, which allowed estimating IC50 values, according to the following equation in GraphPad Prism: y = ymin + (ymax−ymin)/(1+10^(((LogIC50−x)*HillSlope))) [formula]
(§2) Assay final concentrations: • KLK6: 5 nM • Trypsin: 0.88 ng/mL • Thrombin: 9.8·10^-5 NIH unit/mL • Factor Xa: 4 nM • FSR-AMC: 20 µM
For test [2], the target named is Thrombin (Homo sapiens, UniProt P00734).
Procedure: as §1, §2
Test [3] concerns the target Trypsin (Homo sapiens, UniProt P07477).
Procedure: as §1, §2
For test [4], the target named is Factor Xa (Homo sapiens, UniProt P00742).
Procedure: as §1, §2
The mark [5] stands for this setting: read-out: KLK6 IC50, KLK6 5 nM (produced in insect cells), 30 min incubation with inhibitor, FSR-AMC 20 µM, Tris pH 7.5.
The mark [6] stands for this setting: read-out: Thrombin IC50, Thrombin 9.8·10^-5 NIH unit/mL, 30 min incubation with inhibitor, FSR-AMC 20 µM, Tris pH 7.5.
The mark [7] stands for this setting: read-out: Trypsin IC50, Trypsin 0.88 ng/mL, 30 min incubation with inhibitor, FSR-AMC 20 µM, Tris pH 7.5.
Setting [8] is: read-out: Factor Xa IC50, Factor Xa 4 nM, 30 min incubation with inhibitor, FSR-AMC 20 µM, Tris pH 7.5.

Like-named read-outs stand apart in the source and are kept apart here.

The values that follow come from patent publication EP3305781A1, “CHEMICAL SUBSTANCES WHICH INHIBIT THE ENZYMATIC ACTIVITY OF HUMAN KALLIKREIN-RELATED PEPTIDASE 6 (KLK6)” (Deutsches Krebsforschungszentrum, priority 2016, dated 2018).

Factor Xa, sequence (P00742 235-488 limits assumed): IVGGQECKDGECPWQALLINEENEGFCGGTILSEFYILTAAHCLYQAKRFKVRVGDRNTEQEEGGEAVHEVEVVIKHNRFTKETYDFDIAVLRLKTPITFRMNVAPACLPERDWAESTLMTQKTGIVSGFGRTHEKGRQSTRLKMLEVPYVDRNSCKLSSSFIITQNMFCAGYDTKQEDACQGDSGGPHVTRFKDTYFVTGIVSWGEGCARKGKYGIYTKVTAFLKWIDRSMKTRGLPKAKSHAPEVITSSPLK
Factor Xa, sequence (P00742 41-179 partner limits assumed): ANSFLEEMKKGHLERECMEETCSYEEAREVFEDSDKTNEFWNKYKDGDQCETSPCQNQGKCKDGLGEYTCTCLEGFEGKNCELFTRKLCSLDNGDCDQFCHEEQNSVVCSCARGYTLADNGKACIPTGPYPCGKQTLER

For the molecule `C=CCOc1ccccc1NC(=O)COC(=O)Cc1ccccc1I` [compound 65], the IC50 (commonly the concentration that inhibits the measured activity by half) is 38.7 µM in test [1] (setting [5]), greater than 200 µM in test [2] (setting [6]), greater than 200 µM in test [3] (setting [7]) and greater than 200 µM in test [4] (setting [8]).

As for `Cc1[nH]c2ccccc2c1CC(=O)OCC(=O)Nc1ccc(N2CCOCC2)cc1` [compound 76], the IC50 in test [2] (setting [6]), in test [3] (setting [7]) and in test [4] (setting [8]) was greater than 200 µM throughout.

In the case of `Cc1nn(-c2ccccc2)c(C)c1NC(=O)COC(=O)Cc1ccc(N)cc1` [compound 44], the figures for the IC50 in test [1] (setting [5]), in test [2] (setting [6]) and in test [3] (setting [7]) were 12.2 µM, greater than 50 µM and greater than 50 µM, respectively.

As to `Cc1nn(-c2ccccc2)c(C)c1NC(=O)COC(=O)Cc1cn(C)c2ccccc12` [compound 18], the IC50 in test [1] (setting [5]) was 11.6 µM; in test [2] (setting [6]) it was greater than 200 µM; in test [3] (setting [7]), 149 µM; in test [4] (setting [8]), 50.5 µM.

Take `COc1ccc(Cn2nc(C)c(NC(=O)COC(=O)Cn3c(C)cc4ccccc43)c2C)cc1` [compound 7, 2-((1-(4-methoxybenzyl)-3,5-dimethyl-1H-pyrazol-4-yl)amino)-2-oxoethyl 2-(2-methyl-1H-indol-1-yl)acetate]: the IC50 in test [1] is 0.598 µM; in test [2], greater than 200 µM; in test [3], greater than 200 µM; in test [4], greater than 200 µM.

Take `Cc1nn(-c2ccccc2)c(C)c1NC(=O)COC(=O)Cc1cccc(N)c1` [compound 55]: the IC50 is 17 µM in test [1] (setting [5]), greater than 200 µM in test [2] (setting [6]), greater than 200 µM in test [3] (setting [7]) and greater than 200 µM in test [4] (setting [8]).

As to `Cc1nn(-c2ccccc2)c(C)c1NC(=O)COC(=O)Cc1ccsc1` [compound 70], the IC50 in test [2] (setting [6]), in test [3] (setting [7]) and in test [4] (setting [8]) was greater than 200 µM in each case.

For the molecule `Cc1nn(-c2ccccc2)c(C)c1NC(=O)COC(=O)Cc1ccccc1Br` [compound 48], the IC50 in test [2] (setting [6]), in test [3] (setting [7]) and in test [4] (setting [8]) was greater than 200 µM each time.

As to `Cc1nn(-c2ccccc2)c(C)c1NC(=O)COC(=O)Cc1ccccc1N=[N+]=[N-]` [compound 82], the IC50 in test [1] (setting [5]) was 27.3 µM; in test [2] (setting [6]) it was greater than 200 µM; in test [3] (setting [7]) it was greater than 200 µM; in test [4] (setting [8]) it was greater than 200 µM.

Consider `COc1ccc(CC(=O)OCC(=O)Nc2c(C)nn(-c3ccccc3)c2C)cc1` [compound 52], for which the IC50 in test [1] (setting [5]) was 32.8 µM; in test [2] (setting [6]), greater than 200 µM; in test [3] (setting [7]), greater than 200 µM; in test [4] (setting [8]), greater than 200 µM.

With `Cc1nn(-c2ccc(N)cc2)c(C)c1NC(=O)COC(=O)Cn1c(C)cc2ccccc21` [compound 22], the IC50 in test [1] (setting [5]) was 0.486 µM; in test [2] (setting [6]), greater than 200 µM; in test [3] (setting [7]), 105 µM; in test [4] (setting [8]) it was greater than 200 µM.

Consider `Cc1nn(-c2ccccc2N)c(C)c1NC(=O)COC(=O)Cn1c(C)cc2ccccc21` [compound 23], for which the IC50 in test [1] (setting [5]) was 0.375 µM; in test [2] (setting [6]) it was greater than 200 µM; in test [3] (setting [7]), greater than 200 µM; in test [4] (setting [8]), greater than 200 µM.

`Cc1nn(-c2ccc(C#N)cc2)c(C)c1NC(=O)COC(=O)Cn1c(C)cc2ccccc21` [compound 6, 2-((1-(4-cyanophenyl)-3,5-dimethyl-1H-pyrazol-4-yl)amino)-2-oxoethyl 2-(2-methyl-1H-indol-1-yl)acetate]: the IC50 was 0.439 µM in test [1], greater than 200 µM in test [2], greater than 200 µM in test [3] and greater than 200 µM in test [4].

As for `COc1cccc(NC(=O)COC(=O)Cc2c(C)[nH]c3ccccc23)c1` [compound 79], the IC50 is 6.05 µM in test [1] (setting [5]), greater than 200 µM in test [2] (setting [6]), greater than 200 µM in test [3] (setting [7]) and greater than 200 µM in test [4] (setting [8]).

Take `COc1ccccc1NC(=O)COC(=O)Cc1c(C)[nH]c2ccccc12` [compound 77]: the half-inhibitory concentration (IC50) is 1.86 µM in test [1] (setting [5]), greater than 200 µM in test [2] (setting [6]), 28.7 µM in test [3] (setting [7]) and 21.1 µM in test [4] (setting [8]).

As to `Cc1nn(-c2ccccc2)c(C)c1NC(=O)COC(=O)Cn1c(C)cc2cc(Cl)ccc21` [compound 30], the IC50 in test [2] (setting [6]), in test [3] (setting [7]) and in test [4] (setting [8]) was greater than 50 µM each time.

`Cc1cccc(NC(=O)COC(=O)Cc2c(C)[nH]c3ccccc23)c1` [compound 75]: the IC50 in test [1] (setting [5]) is 5.38 µM; in test [2] (setting [6]), greater than 200 µM; in test [3] (setting [7]), greater than 200 µM; in test [4] (setting [8]) it was greater than 200 µM.

For the molecule `Cc1ccccc1CC(=O)OCC(=O)Nc1c(C)nn(-c2ccccc2)c1C` [compound 50], the 50% inhibitory concentration (IC50) in test [1] (setting [5]) is 2.16 µM; in test [2] (setting [6]), greater than 200 µM; in test [3] (setting [7]), greater than 200 µM; in test [4] (setting [8]), greater than 200 µM.

In the case of `Cc1[nH]c2ccccc2c1CC(=O)OCC(=O)Nc1cncnc1` [compound 86], the IC50 in test [2] (setting [6]) is 66.1 µM; in test [3] (setting [7]), greater than 200 µM; in test [4] (setting [8]), 148 µM.

Consider `Cc1nn(-c2ccccc2)c(C)c1NC(=O)COC(=O)C(C)c1c(C)[nH]c2ccccc12` (stereo not shown) [compound 81], for which the IC50 in test [2] (setting [6]), in test [3] (setting [7]) and in test [4] (setting [8]) was greater than 200 µM throughout.

Turning to `COc1ccccc1CC(=O)OCC(=O)Nc1c(C)nn(-c2ccccc2)c1C` [compound 54], the IC50 in test [1] (setting [5]) is 4.85 µM; in test [2] (setting [6]) it was greater than 200 µM; in test [3] (setting [7]), greater than 200 µM; in test [4] (setting [8]), greater than 200 µM.

Take `Cc1nn(-c2ccccc2)c(C)c1NC(=O)COC(=O)Cn1ccc2cc(Cl)ccc21` [compound 28]: the IC50 in test [1] (setting [5]) was 26 µM; in test [2] (setting [6]), greater than 50 µM; in test [3] (setting [7]), greater than 50 µM; in test [4] (setting [8]), greater than 50 µM.

For the molecule `Cc1nn(-c2ccccc2)c(C)c1N(C)C(=O)COC(=O)Cc1c(C)[nH]c2ccccc12` [compound 88], the IC50 worked out at 2.88 µM in test [1] (setting [5]), 14.1 µM in test [2] (setting [6]), 9.1 µM in test [3] (setting [7]) and 18.1 µM in test [4] (setting [8]).

Regarding `Cc1nn(-c2ccccc2)c(C)c1NC(=O)COC(=O)C(C)c1c[nH]c2ccccc12` (stereo not shown) [compound 83], the concentration for half-maximal inhibition (IC50) in test [1] (setting [5]) is 14.3 µM; in test [2] (setting [6]), greater than 200 µM; in test [3] (setting [7]), greater than 200 µM; in test [4] (setting [8]) it was greater than 200 µM.

Turning to `Cc1nn(-c2ccccc2)c(C)c1NC(=O)COC(=O)Cc1ccc(Cl)s1` [compound 60], the concentration for half-maximal inhibition (IC50) in test [1] (setting [5]) is 32.6 µM; in test [2] (setting [6]) it was greater than 200 µM; in test [3] (setting [7]) it was greater than 200 µM; in test [4] (setting [8]), greater than 200 µM.

As for `CCc1cc2ccccc2n1CC(=O)OCC(=O)Nc1c(C)nn(-c2ccccc2)c1C` [compound 36], the IC50 is 0.433 µM in test [1] (setting [5]), greater than 50 µM in test [2] (setting [6]), 29.3 µM in test [3] (setting [7]) and greater than 50 µM in test [4] (setting [8]).

Consider `Cc1ccc(-n2nc(C)c(NC(=O)COC(=O)Cc3c[nH]c4ccccc34)c2C)cc1` [compound 13, 2-((3,5-dimethyl-1-(p-tolyl)-1H-pyrazol-4-yl)amino)-2-oxoethyl 2-(1H-indol-3-yl)acetate], for which the IC50 in test [1] was 6.47 µM; in test [2] it was greater than 200 µM; in test [3], 133 µM; in test [4] it was 162 µM.

As for `Cc1nn(-c2ccccc2)c(C)c1NC(=O)COC(=O)Cn1ccc2c(F)cccc21` [compound 25], the IC50 in test [1] (setting [5]) was 30.6 µM; in test [2] (setting [6]), greater than 50 µM; in test [3] (setting [7]), greater than 50 µM; in test [4] (setting [8]), greater than 50 µM.

In the case of `Cc1ccccc1NC(=O)COC(=O)Cn1c(C)cc2ccccc21` [compound 26], the half-inhibitory concentration (IC50) in test [2] (setting [6]), in test [3] (setting [7]) and in test [4] (setting [8]) was greater than 50 µM throughout.

On to `Cc1nn(-c2ccccc2)c(C)c1NC(=O)C1(OC(=O)Cn2c(C)cc3ccccc32)CC1` [compound 40], for which the IC50 in test [2] (setting [6]), in test [3] (setting [7]) and in test [4] (setting [8]) was greater than 50 µM throughout.

For `Cc1nn(-c2ccccc2)c(C)c1NC(=O)COC(=O)Cc1ccccc1` [compound 43], the 50% inhibitory concentration (IC50) in test [2] (setting [6]) and in test [3] (setting [7]) was greater than 50 µM throughout.

On to `Cc1nn(-c2ccccc2)c(C)c1NC(=O)COC(=O)Cc1cccc2ccccc12` [compound 42], for which the IC50 in test [2] (setting [6]) and in test [3] (setting [7]) was greater than 50 µM throughout.

`Cc1nn(-c2ccccc2)c(C)c1NC(=O)COC(=O)Cc1ccccc1Cl` [compound 45]: the 50% inhibitory concentration (IC50) was 1.36 µM in test [1] (setting [5]), greater than 50 µM in test [2] (setting [6]) and greater than 50 µM in test [3] (setting [7]).

In the case of `Cc1nn(-c2ccccc2)c(C)c1NC(=O)COC(=O)Cc1c[nH]c2ccccc12` [compound 12, 2-((3,5-dimethyl-1-phenyl-1H-pyrazol-4-yl)amino)-2-oxoethyl 2-(1H-indol-3-yl)acetate], the IC50 in test [2] is greater than 200 µM; in test [3] it was 139 µM; in test [4], 135 µM.

On to `Cc1nn(-c2ccccc2)c(C)c1NC(=O)COC(=O)Cc1c(C)[nH]c2ccccc12` [compound 38], for which the IC50 is greater than 50 µM in test [2] (setting [6]), 27.4 µM in test [3] (setting [7]) and greater than 50 µM in test [4] (setting [8]).

`Cc1nn(-c2ccccc2)c(C)c1NC(=O)COC(=O)Cn1c(C)cc2ccccc21` [compound 1, 2-((3,5-dimethyl-1-phenyl-1H-pyrazol-4-yl)amino)-2-oxoethyl 2-(2-methyl-H-indol-1-yl)acetate]: the figures for the IC50 in test [2], in test [3] and in test [4] were greater than 200 µM, 39.4 µM and greater than 200 µM, respectively.

Consider `Cc1nn(-c2ccccc2)c(C)c1NC(=O)COC(=O)CCc1c(C)[nH]c2ccccc12` [compound 87], for which the concentration for half-maximal inhibition (IC50) in test [2] (setting [6]), in test [3] (setting [7]) and in test [4] (setting [8]) was greater than 200 µM throughout.

Turning to `Cc1nn(-c2ccccc2)c(C)c1NC(=O)COC(=O)Cc1ccc(C#N)cc1` [compound 46], the values for the half-inhibitory concentration (IC50) in test [1] (setting [5]), in test [2] (setting [6]) and in test [3] (setting [7]) were 29.4 µM, greater than 50 µM and greater than 50 µM, respectively.
